Reference: ChEMBL document CHEMBL1125330, “N-substituted pyrazino[2,3-c][1,2,6]thiadiazine 2,2-dioxides. A new class of diuretics” (J Med Chem, 1992)

Species: Rattus norvegicus
Test: Mean sodium excretion in rats (Control/Drug treatment value); value 0.42/0.65
Type: ADME, organism-based
Conditions: in vivo

- Na: 1.5
Compound: CCCc1nc2c(nc1C)C(N)=NS(=O)(=O)N2CC
